Reference: the NIST ThermoML archive (doi:10.1021/je050416y)
Numbers after ± are expanded uncertainties.

Assay: xn = mol fraction of the nth substance listed
Conditions: 101 kPa, Liquid; for mass density: Vibrating tube method

CCC(C)(C)O [2-methylbutan-2-ol] + CCO
kinematic viscosity (308.15 K, x1 = 0.0915): 1.23e-06 ± 5.9e-08 m2/s | kinematic viscosity (308.15 K, x1 = 0.1753): 1.33e-06 ± 6.3e-08 m2/s | kinematic viscosity (308.15 K, x1 = 0.2524): 1.42e-06 ± 6.7e-08 m2/s | kinematic viscosity (308.15 K, x1 = 0.3235): 1.52e-06 ± 7.1e-08 m2/s | kinematic viscosity (308.15 K, x1 = 0.3894): 1.62e-06 ± 7.6e-08 m2/s | kinematic viscosity (308.15 K, x1 = 0.4505): 1.72e-06 ± 8e-08 m2/s | kinematic viscosity (308.15 K, x1 = 0.5605): 1.95e-06 ± 9e-08 m2/s | kinematic viscosity (308.15 K, x1 = 0.6567): 2.19e-06 ± 1e-07 m2/s | kinematic viscosity (308.15 K, x1 = 0.7416): 2.43e-06 ± 1.1e-07 m2/s | kinematic viscosity (308.15 K, x1 = 0.817): 2.68e-06 ± 1.2e-07 m2/s | kinematic viscosity (308.15 K, x1 = 0.8844): 2.93e-06 ± 1.3e-07 m2/s | kinematic viscosity (308.15 K, x1 = 0.9451): 3.16e-06 ± 1.4e-07 m2/s | kinematic viscosity (308.15 K, x1 = 1): 3.39e-06 ± 1.5e-07 m2/s | mass density (313.15 K, x1 = 0.0268): 773.5 ± 1 kg/m3 | mass density (313.15 K, x1 = 0.0549): 774.8 ± 1 kg/m3 | mass density (313.15 K, x1 = 0.0845): 776 ± 1 kg/m3 | mass density (313.15 K, x1 = 0.1156): 777.2 ± 1 kg/m3 | mass density (313.15 K, x1 = 0.1484): 778.4 ± 1 kg/m3 | mass density (313.15 K, x1 = 0.183): 779.6 ± 1 kg/m3 | mass density (313.15 K, x1 = 0.2584): 782.2 ± 1 kg/m3 | mass density (313.15 K, x1 = 0.3433): 784.9 ± 1 kg/m3 | mass density (313.15 K, x1 = 0.4395): 787.9 ± 1 kg/m3 | mass density (313.15 K, x1 = 0.5495): 790.9 ± 1 kg/m3 | mass density (313.15 K, x1 = 0.6765): 794 ± 1 kg/m3 | mass density (313.15 K, x1 = 0.8247): 797.1 ± 1 kg/m3 | mass density (313.15 K, x1 = 1): 800 ± 1 kg/m3 | kinematic viscosity (313.15 K, x1 = 0.0915): 1.12e-06 ± 5.4e-08 m2/s | kinematic viscosity (313.15 K, x1 = 0.1753): 1.2e-06 ± 5.8e-08 m2/s | kinematic viscosity (313.15 K, x1 = 0.2524): 1.29e-06 ± 6.2e-08 m2/s | kinematic viscosity (313.15 K, x1 = 0.3235): 1.37e-06 ± 6.5e-08 m2/s | kinematic viscosity (313.15 K, x1 = 0.3894): 1.46e-06 ± 6.9e-08 m2/s | kinematic viscosity (313.15 K, x1 = 0.4505): 1.55e-06 ± 7.3e-08 m2/s | kinematic viscosity (313.15 K, x1 = 0.5605): 1.74e-06 ± 8.1e-08 m2/s | kinematic viscosity (313.15 K, x1 = 0.6567): 1.94e-06 ± 9e-08 m2/s | kinematic viscosity (313.15 K, x1 = 0.7416): 2.14e-06 ± 9.8e-08 m2/s | kinematic viscosity (313.15 K, x1 = 0.817): 2.34e-06 ± 1.1e-07 m2/s | kinematic viscosity (313.15 K, x1 = 0.8844): 2.54e-06 ± 1.2e-07 m2/s | kinematic viscosity (313.15 K, x1 = 0.9451): 2.73e-06 ± 1.2e-07 m2/s | kinematic viscosity (313.15 K, x1 = 1): 2.91e-06 ± 1.3e-07 m2/s | mass density (318.15 K, x1 = 0.0268): 769.3 ± 1 kg/m3 | mass density (318.15 K, x1 = 0.0549): 770.6 ± 1 kg/m3 | mass density (318.15 K, x1 = 0.0845): 771.9 ± 1 kg/m3 | mass density (318.15 K, x1 = 0.1156): 773.2 ± 1 kg/m3 | mass density (318.15 K, x1 = 0.1484): 774.4 ± 1 kg/m3 | mass density (318.15 K, x1 = 0.183): 775.7 ± 1 kg/m3 | mass density (318.15 K, x1 = 0.2584): 778.4 ± 1 kg/m3 | mass density (318.15 K, x1 = 0.3433): 781.2 ± 1 kg/m3 | mass density (318.15 K, x1 = 0.4395): 784.2 ± 1 kg/m3 | mass density (318.15 K, x1 = 0.5495): 787.3 ± 1 kg/m3 | mass density (318.15 K, x1 = 0.6765): 790.5 ± 1 kg/m3 | mass density (318.15 K, x1 = 0.8247): 793.6 ± 1 kg/m3 | mass density (318.15 K, x1 = 1): 796.6 ± 1 kg/m3 | kinematic viscosity (318.15 K, x1 = 0.0915): 1.02e-06 ± 5e-08 m2/s | kinematic viscosity (318.15 K, x1 = 0.1753): 1.1e-06 ± 5.4e-08 m2/s | kinematic viscosity (318.15 K, x1 = 0.2524): 1.18e-06 ± 5.7e-08 m2/s | kinematic viscosity (318.15 K, x1 = 0.3235): 1.25e-06 ± 6e-08 m2/s | kinematic viscosity (318.15 K, x1 = 0.3894): 1.33e-06 ± 6.4e-08 m2/s | kinematic viscosity (318.15 K, x1 = 0.4505): 1.41e-06 ± 6.7e-08 m2/s | kinematic viscosity (318.15 K, x1 = 0.5605): 1.57e-06 ± 7.4e-08 m2/s | kinematic viscosity (318.15 K, x1 = 0.6567): 1.73e-06 ± 8.1e-08 m2/s | kinematic viscosity (318.15 K, x1 = 0.7416): 1.9e-06 ± 8.8e-08 m2/s | kinematic viscosity (318.15 K, x1 = 0.817): 2.07e-06 ± 9.5e-08 m2/s | kinematic viscosity (318.15 K, x1 = 0.8844): 2.23e-06 ± 1e-07 m2/s | kinematic viscosity (318.15 K, x1 = 0.9451): 2.38e-06 ± 1.1e-07 m2/s | kinematic viscosity (318.15 K, x1 = 1): 2.52e-06 ± 1.1e-07 m2/s | mass density (323.15 K, x1 = 0.0268): 764.9 ± 1 kg/m3 | mass density (323.15 K, x1 = 0.0549): 766.3 ± 1 kg/m3 | mass density (323.15 K, x1 = 0.0845): 767.7 ± 1 kg/m3 | mass density (323.15 K, x1 = 0.1156): 769.1 ± 1 kg/m3 | mass density (323.15 K, x1 = 0.1484): 770.4 ± 1 kg/m3 | mass density (323.15 K, x1 = 0.183): 771.8 ± 1 kg/m3 | mass density (323.15 K, x1 = 0.2584): 774.6 ± 1 kg/m3 | mass density (323.15 K, x1 = 0.3433): 777.5 ± 1 kg/m3 | mass density (323.15 K, x1 = 0.4395): 780.5 ± 1 kg/m3 | mass density (323.15 K, x1 = 0.5495): 783.7 ± 1 kg/m3 | mass density (323.15 K, x1 = 0.6765): 787 ± 1 kg/m3 | mass density (323.15 K, x1 = 0.8247): 790.2 ± 1 kg/m3 | mass density (323.15 K, x1 = 1): 793.3 ± 1 kg/m3 | kinematic viscosity (323.15 K, x1 = 0.0915): 9.01e-07 ± 4.5e-08 m2/s | kinematic viscosity (323.15 K, x1 = 0.1753): 9.68e-07 ± 4.8e-08 m2/s | kinematic viscosity (323.15 K, x1 = 0.2524): 1.03e-06 ± 5.1e-08 m2/s | kinematic viscosity (323.15 K, x1 = 0.3235): 1.09e-06 ± 5.4e-08 m2/s | kinematic viscosity (323.15 K, x1 = 0.3894): 1.16e-06 ± 5.6e-08 m2/s | kinematic viscosity (323.15 K, x1 = 0.4505): 1.22e-06 ± 5.9e-08 m2/s | kinematic viscosity (323.15 K, x1 = 0.5605): 1.35e-06 ± 6.5e-08 m2/s | kinematic viscosity (323.15 K, x1 = 0.6567): 1.49e-06 ± 7e-08 m2/s | kinematic viscosity (323.15 K, x1 = 0.7416): 1.62e-06 ± 7.6e-08 m2/s | kinematic viscosity (323.15 K, x1 = 0.817): 1.75e-06 ± 8.2e-08 m2/s | kinematic viscosity (323.15 K, x1 = 0.8844): 1.87e-06 ± 8.7e-08 m2/s | kinematic viscosity (323.15 K, x1 = 0.9451): 1.99e-06 ± 9.2e-08 m2/s | kinematic viscosity (323.15 K, x1 = 1): 2.09e-06 ± 9.6e-08 m2/s
